Laboratory results as given in ChEMBL document CHEMBL3994648, “Design and synthesis of a novel series of 4-heteroarylamino-1'-azaspiro[oxazole-5,3'-bicyclo[2.2.2]octanes as α7 nicotinic receptor agonists 2. Development of 4-heteroaryl SAR” (Bioorg Med Chem Lett, 2017).

Tests used:
[1] = Plasma concentration in mouse at 0.3 mg/kg, po after 30 mins; type: ADME, organism-based
[2] = Drug uptake in mouse brain at 0.3 mg/kg, po after 30 mins; type: ADME, organism-based; settings: read-out: Drug uptake

Compound: c1ccc(-c2cc(NC3=NC[C@@]4(CN5CCC4CC5)O3)ncn2)cc1
- concentration at 0.5 h [1]: 273 nM
- concentration at 0.5 h [2]: 81 nM
